# Article PMC5725799, “Comparative binding properties of the tau PET tracers THK5117, THK5351, PBB3, and T807 in postmortem Alzheimer brains” (Alzheimer's Research & Therapy, 2017)
# pKi: −log10 of the molar value. Several values for one entry are separate records, joined by “and”; a condition that tells them apart may be missing. Equal values may be shown once.
# How the values were obtained:
# [1] = target: T1, monoamine oxidase B (MAO-B) (Homo sapiens, UniProt P27338); assay: Competition binding with ^3H-deprenyl in hippocampus and putamen brain homogenates (off-target binding); settings: vs ^3H-deprenyl 10 nM, two AD cases
# T1 construct: postmortem brain homogenates from the hippocampus and putamen (0.2 mg/ml tissue) of two patients with AD; tissue Netherlands Brain Bank; host or cells: postmortem human AD hippocampus and putamen homogenate
# T1 sequence (P27338 1-520): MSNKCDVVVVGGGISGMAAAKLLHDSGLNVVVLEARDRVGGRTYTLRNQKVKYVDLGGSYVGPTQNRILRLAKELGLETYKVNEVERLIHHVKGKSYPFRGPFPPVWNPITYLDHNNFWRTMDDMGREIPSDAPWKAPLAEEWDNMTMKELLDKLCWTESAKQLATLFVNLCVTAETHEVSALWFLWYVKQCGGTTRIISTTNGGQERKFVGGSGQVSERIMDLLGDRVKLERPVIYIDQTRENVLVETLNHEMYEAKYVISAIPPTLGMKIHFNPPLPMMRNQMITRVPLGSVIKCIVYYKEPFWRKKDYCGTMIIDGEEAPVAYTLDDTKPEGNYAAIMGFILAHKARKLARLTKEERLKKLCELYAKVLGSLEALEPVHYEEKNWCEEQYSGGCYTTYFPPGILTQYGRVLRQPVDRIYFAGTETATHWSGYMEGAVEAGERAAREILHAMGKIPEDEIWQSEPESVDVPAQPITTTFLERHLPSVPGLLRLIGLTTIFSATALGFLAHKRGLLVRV
# Method: Competition binding studies using postmortem brain homogenates from the hippocampus and putamen (0.2 mg/ml tissue) of two patients with AD were performed using ^3H-deprenyl (10 nM in Na-K phosphate buffer, pH 7.4) and increasing concentrations of unlabeled THK5117 (10^−14 to 10^−5 M) and T807 (10^−14 to 10^−5 M) to determine the off-target binding of the tau PET tracers. After 2-h incubation at room temperature, the binding assay was terminated by filtration through glass fiber filters presoaked for at least 3 h in 0.3% polyethylenimine. To do so, the filters were rinsed and filtered three times using cold binding buffer, and then the radiation on the filter was quantified using a Beckman Coulter scintillation counter. The data from all the binding studies were analyzed using Prism version 7.0 software.
# MAO-B = test system: MAO-B; set-up: method as in PMID 28374768; settings: cited from earlier work
# tau [2] = target: tau (Homo sapiens, UniProt P10636); assay: Competition binding assay with ^3H-THK5351 in postmortem hippocampus brain homogenates; settings: vs ^3H-THK5351 1.5 nM, AD hippocampus homogenate; read-out: Ki2 (high-affinity site)
# tau (Homo sapiens, UniProt P10636), sequence (P10636 623-695 limits assumed): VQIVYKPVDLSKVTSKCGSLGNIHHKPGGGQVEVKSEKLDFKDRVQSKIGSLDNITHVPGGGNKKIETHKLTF
# Method: (§1) Postmortem brain tissues from three patients with AD and three healthy control subjects were used for the in vitro binding assays. All the brain tissue, which came from the Netherlands Brain Bank, had been homogenized in PBS containing a protease/phosphatase inhibitor (see Table 1).
# After 2-h incubation at room temperature, the binding assay was terminated by filtration through glass fiber filters presoaked for at least 3 h in 0.3% polyethylenimine. To do so, the filters were rinsed and filtered three times using cold binding buffer, and then the radiation on the filter was quantified using a Beckman Coulter scintillation counter. The data for the regional binding distribution studies were analyzed using Prism version 7.0 software for Mac (GraphPad Software Inc., La Jolla, CA, USA), and two-way analysis of variance with multiple comparisons was performed.
# tau [3] = assay: ^3H-THK5117 and ^3H-THK5351 autoradiography of large frozen postmortem brain sections, total binding; set-up: species or system human; settings: 3 nM tracer
# Method: Postmortem frozen left brain hemispheres from three patients with AD were obtained from the Neuropathology of Dementia Laboratory (Indiana University School of Medicine, Indianapolis, IN, USA) and used for the autoradiography experiment. The frozen sections were allowed to reach room temperature, preincubated for 10 minutes with PBS + 0.1% BSA (pH 7.4), and then incubated for 1 h at room temperature with ^3H-THK5351 (3 nM) or ^3H-THK5117 (3 nM). The sections were rinsed three times in cold buffer for 5 minutes, followed by a quick dip in cold distilled water. Nonspecific binding was determined using 10 μM unlabeled THK5351 or 10 μM unlabeled THK5117. […]
# For all the autoradiography studies, the regions of interest were drawn manually on the autoradiogram using multigauge software and were used for the semiquantitative analyses. Photostimulated luminescence per square millimeter (PSL/mm^2) was transformed to picomoles per cubic millimeter using a transformation factor that took into account the resolution of the image, the pixel value for the concentration of ligand, and the thickness of the sections: (PSL/mm^2 value)/([pixel value per pmol] × [(resolution/1000)^2] × [cryosection thickness]/1000).
# tau [4] = assay: Regional binding distribution of ^3H-THK5117 and ^3H-THK5351 in brain homogenate; set-up: species or system human; settings: temporal cortex homogenate, ^3H-THK5117 3 nM vs ^3H-THK5351 1.5 nM, p < 0.0001
# Method: as §1
# The regional binding distribution comparison between ^3H-THK5351 and ^3H-THK5117 was carried out in postmortem frontal and temporal cortical and hippocampal tissue from the brains of three patients with AD and three control subjects. The protocol was similar for ^3H-THK5351 (1.5 nM) and ^3H-THK5117 (3 nM): 0.1 mg of tissue in PBS + 0.1% bovine serum albumin (BSA) to a final volume of 500 μl, followed by incubation for 2 h at room temperature. The nonspecific binding was determined using 1 μM unlabeled THK5351 or unlabeled THK5117. After 2-h incubation at room temperature, the competition binding assay was stopped using filtration through glass fiber filters, and the radiation was then quantified using the scintillation counter.
SMILES,pKi ([1]; hippocampus homogenate),pKi ([1]; putamen homogenate),affinity between MAO-B and THK5117 (MAO-B),pKi (tau [2]),"Total Binding (tau [3]; AD1, Frontal cortex) [fmol/mg]","Total Binding (tau [3]; AD1, Temporal cortex) [fmol/mg]",extent of binding compared with ^3H-THK5351 (tau [4])
CNc1ccc(-c2ccc3cc(OCC(O)CF)ccc3n2)cc1 (stereo not shown) [THK5117],6.54 and < 6.70,6.83 and ~6.82,around 300 nM,7.70,–,–,–
"[3H]CNc1ccc(-c2ccc3cc(OCC(O)CF)ccc3n2)cc1 (stereo not shown) [^3H-THK5117, 1-Fluoro-3-((2-(4-([^3H]methylamino)phenyl)quinolin-6-yl)oxy)propan-2-ol]",–,–,–,–,312,261,more extensive binding of ^3H-THK5117 than of ^3H-THK5351
